Source: US20240261274A1, “TREATMENT OF MYC-DRIVEN CANCERS WITH GSPT1 DEGRADERS” (MONTE ROSA THERAPEUTICS, INC., priority 2021, published 2024)

Experiments:
[1] = biological target: GSPT1 (Homo sapiens, UniProt P15170+Q96SW2); test: GSPT1 levels in breast cancer tumors after compound 8 (western blotting); assay type: in vivo; parameters: endogenous in cells; settings: three consecutive doses at 37 and 75 mpk; tumors harvested 24 hr post third dose; MDA-MB-468, MDA-MB-231, MDA-MB-436, CAL51
Procedure: Representative examples below show the levels of GSPT1 in MDA-MB-468 (ATCC HTB-132), MDA-MB-231 (ATCC HTB-26), MDA-MB-436 (ATCC HTB-130) and CAL51 (DSMZ-ACC-302) tumors (in lanes from top down as indicated) following three consecutive doses of compound 8 at 37 (right panel) and 75 mpk (middle panel) or administration of vehicle only (left panel). GADPH levels as control is shown in the lowest lane. Tumors were harvested 24 hr post third dose and levels of GSPT1 were determined by western blotting as indicated. Tumors were collected from the in vivo efficacy studies described in the previous FIG. 7A.

[2] = tested on: NSCLC patient derived xenografts; test: Patient derived NSCLC xenograft models (PDX), tumor progression free probability; assay type: in vivo, immunodeficient mice; settings: high L-Myc or N-Myc expressing PDX models, oral 10 mg/kg daily, progression >800 mm^3
Procedure: Patient derived NSCLC xenograft models (PDX) were made using immunodeficient mice. 14 PDXs were made for high L-Myc or N-Myc expressing NSCLC samples and 19 PDXs were made for low L-Myc or N-Myc expressing NSCLC samples. Animals were divided into a treatment group that received an oral dose of 10 mg/kg Compound 345 daily and a vehicle-only control group. […] Data from these experiments are shown in FIG. 14A (high L-Myc or high N-Myc expressing) and FIG. 14B (low L-Myc or low N-Myc expressing). Tumor progression free probability was plotted over time, with a threshold of tumor progression set at greater than 800 mm^3.
We used log 2FPKM cutoff of 1.5 and 3.4 for N-Myc and L-Myc expression respectively. PDX tumor fragments (2-3 mm in diameter) were inoculated subcutaneously at the upper right dorsal flank of 6-8 weeks old female BALB7c or NODS/CID nude mice. […] Mice were PO dosed with vehicle or Compound 345 at 10 mg/kg daily and tumor volumes recorded at least twice a week. […] For each mouse, we calculated the first day the tumor volume reached 800 mm3 as the endpoint. […] Kaplan-Meier curves were generated in R (ver 4.0.2, survminer package) and log-rank (Mantel-Cox) test P-values were calculated using R (ver 4.0.2, survival package) to assess the differences in survival curves between the Compound 345-treated and vehicle treated samples. […]

[3] = tested on: N-Myc; test: N-Myc levels in NCI-H1155 tumors (Compound 345); assay type: in vivo, mice; settings: day 5, 1 mg/kg and 10 mg/kg, strongest effect at 10 mg/kg
Procedure: Additionally, plasma concentrations of Compound 345 and levels of GSPT1 and […] (relative to vehicle-only control) were measured in a time-course experiment on day 5 for the animals receiving 1 mg/kg and 10 mg/kg.
GSPT1 and N-Myc western blotting analyses from NCI-H1155 tumors: The NCI-H1155 model was run as described previously and tumors were harvested following 5 consecutive daily PO doses of Compound 345 at 1.0 and 10 mg/kg. Tumors were lysed in 1× lysis buffer (CST, Cat. No. 9803, Lot No. 0000122383) supplemented with protease (Sigma, Cat. No. P8340) and phosphatase ((Sigma, Cat. No. P5726 and P0044) cocktail inhibitors using TissueLyser II (QIAGEN #85300). Samples were spined at 15,000 rpm in an Eppendorf microfuge for 15 min at 4° C. The protein supernatant was collected in a new 1.5 ml tube and the protein concentrations were determined by the Pierce BCA kit (Thermo, Cat. No. 23225). The tumor lysate samples were mixed with 5×SDS-PAGE loading buffer boiled for 5 min and brought to ice for 5 min. 30 μg of protein was loaded onto a NUPAGE 4-12% BT gel (Invitrogen, Cat. No. NPO336BOX) for separation. […] Membranes were imaged on the Odyssey imager (Li-COR) using fluorescence or cheminulinescence detection. […] Data are expressed as mean±SEM derived from at least three different mice and collected at 0, 2, 6, 12, 24, 48, 72 and 96 hr as indicated.

Sequence of GSPT1 (P15170 whole entry): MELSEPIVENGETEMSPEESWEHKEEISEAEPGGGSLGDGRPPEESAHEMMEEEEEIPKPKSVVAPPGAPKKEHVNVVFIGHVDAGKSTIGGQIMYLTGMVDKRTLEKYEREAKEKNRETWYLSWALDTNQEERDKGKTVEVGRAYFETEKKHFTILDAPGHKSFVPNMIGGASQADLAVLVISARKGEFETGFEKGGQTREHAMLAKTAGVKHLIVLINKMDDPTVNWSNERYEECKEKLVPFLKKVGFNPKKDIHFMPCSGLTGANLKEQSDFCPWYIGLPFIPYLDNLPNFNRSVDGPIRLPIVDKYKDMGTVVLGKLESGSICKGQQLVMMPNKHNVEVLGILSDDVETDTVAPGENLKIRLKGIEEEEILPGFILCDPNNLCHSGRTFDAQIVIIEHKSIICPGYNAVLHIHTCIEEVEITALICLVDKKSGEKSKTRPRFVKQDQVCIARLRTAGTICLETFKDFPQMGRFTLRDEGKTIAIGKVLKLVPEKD
Sequence of GSPT1 (Q96SW2 whole entry): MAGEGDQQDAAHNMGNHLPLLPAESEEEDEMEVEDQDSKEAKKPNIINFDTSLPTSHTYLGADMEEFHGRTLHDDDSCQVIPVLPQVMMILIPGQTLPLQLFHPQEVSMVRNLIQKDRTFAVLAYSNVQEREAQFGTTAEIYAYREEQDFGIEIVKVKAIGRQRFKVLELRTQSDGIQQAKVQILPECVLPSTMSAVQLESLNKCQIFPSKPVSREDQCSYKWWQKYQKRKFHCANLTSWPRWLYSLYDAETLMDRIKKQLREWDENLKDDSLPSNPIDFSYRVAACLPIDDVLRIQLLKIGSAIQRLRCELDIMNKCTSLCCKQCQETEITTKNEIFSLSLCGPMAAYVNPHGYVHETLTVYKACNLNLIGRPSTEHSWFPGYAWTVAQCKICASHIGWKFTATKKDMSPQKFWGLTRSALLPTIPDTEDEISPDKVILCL
Sequence of GSPT1 (Q16531 whole entry partner): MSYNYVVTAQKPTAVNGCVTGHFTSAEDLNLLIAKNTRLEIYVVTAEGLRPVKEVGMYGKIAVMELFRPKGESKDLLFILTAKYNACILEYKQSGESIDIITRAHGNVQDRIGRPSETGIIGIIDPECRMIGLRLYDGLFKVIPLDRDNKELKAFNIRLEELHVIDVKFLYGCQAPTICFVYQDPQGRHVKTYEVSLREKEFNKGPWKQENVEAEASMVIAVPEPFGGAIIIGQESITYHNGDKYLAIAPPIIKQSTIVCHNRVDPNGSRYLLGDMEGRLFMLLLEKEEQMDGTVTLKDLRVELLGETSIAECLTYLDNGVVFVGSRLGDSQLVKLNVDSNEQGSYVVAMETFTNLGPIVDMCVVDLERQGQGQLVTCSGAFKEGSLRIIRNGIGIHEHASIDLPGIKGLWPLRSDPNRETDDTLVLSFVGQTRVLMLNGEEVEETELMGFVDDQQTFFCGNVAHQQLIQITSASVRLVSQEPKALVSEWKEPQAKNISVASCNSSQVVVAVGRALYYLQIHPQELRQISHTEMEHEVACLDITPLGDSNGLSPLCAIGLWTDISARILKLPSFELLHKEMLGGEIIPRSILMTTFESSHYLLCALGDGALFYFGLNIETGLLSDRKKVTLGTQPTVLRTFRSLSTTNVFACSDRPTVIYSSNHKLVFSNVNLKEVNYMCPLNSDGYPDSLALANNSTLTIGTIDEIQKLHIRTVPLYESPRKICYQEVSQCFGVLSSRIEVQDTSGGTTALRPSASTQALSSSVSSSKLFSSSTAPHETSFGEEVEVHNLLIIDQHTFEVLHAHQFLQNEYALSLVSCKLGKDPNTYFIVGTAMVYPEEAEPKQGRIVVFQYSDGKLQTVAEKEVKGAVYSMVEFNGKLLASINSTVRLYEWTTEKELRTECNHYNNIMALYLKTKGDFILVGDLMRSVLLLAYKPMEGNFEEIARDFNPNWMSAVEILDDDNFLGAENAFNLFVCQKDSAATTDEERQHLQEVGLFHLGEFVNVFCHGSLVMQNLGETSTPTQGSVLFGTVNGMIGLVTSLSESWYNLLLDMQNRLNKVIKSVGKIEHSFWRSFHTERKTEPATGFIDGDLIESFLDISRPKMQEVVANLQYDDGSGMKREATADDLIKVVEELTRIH

Row | SMILES | GSPT1 levels in tumors [1] | tumor progression free probability [2] | N-Myc level relative to vehicle-only control [3]
1 | Cc1ccc(NC(=O)NCc2ccc3c(c2)C(=O)N(C2CCC(=O)NC2=O)C3)cc1Cl (stereo not drawn) [Compound 8] | robust and dose-dependent degradation of GSPT1 levels in tumors |  | 
2 | O=C1CCC(N2Cc3ccc(COC(=O)Nc4cc(OC(F)(F)F)ccc4F)cc3C2=O)C(=O)N1 (stereo not drawn) [Compound 345, (2-(2,6-dioxopiperidin-3-yl)-3-oxoisoindolin-5-yl)methyl(2-fluoro-5-(trifluoromethoxy)phenyl)carbamate] |  | significantly extended the probability that an animal remained tumor-free | substantially reduced
